Activity calls are given as the source filed them. The calls are words filed in the database; no cut-off is given here.
What was measured:
Mus musculus [1] = experiment: Anti-obesity activity in high-sugar western diet induced obesity C57BL/6j mouse model assessed as decrease in fat-free mass body composition at 130 mg/kg per day, po administered measured after 2 weeks by EchoMRI analysis (reference value: 77%); assay type: functional; set-up: scale not given: the % may be the effect or the level left
Mus musculus [2] = experiment: Anti-obesity activity in high-sugar western diet induced obesity C57BL/6j mouse model assessed as decrease in gonadal white adipose tissue weight at 130 mg/kg per day, po administered via gavage daily measured after 3 weeks; assay type: functional, organism-based
Mus musculus [3] = experiment: Anti-obesity activity in fasted C57BL/6j mouse assessed as decrease in serum glucose level at 130 mg/kg per day, po administered measured after 2 weeks; assay type: functional, organism-based
[4] = Drug distribution in fasted C57BL/6j mouse white adipose tissue at 10 mg/kg, po measured after 2 hrs by LC-MS/MS analysis; assay type: ADME, organism-based; conditions: in vivo
Mus musculus [5] = experiment: Anti-obesity activity in high-fat diet induced obesity C57BL/6 mouse model assessed as increase in oxygen consumption at 130 mg/kg, po measured upto 4 hrs by indirect calorimetric analysis; assay type: functional, organism-based
[6] = mouse, in vivo, po, 10 mg/kg, 24 h
Mus musculus [7] = experiment: Anti-obesity activity in C57BL/6j mouse assessed as decrease in serum insulin level at 130 mg/kg per day, po administered via gavage daily measured after 3 weeks by ELISA assay; assay type: functional, organism-based
[8] = Induction of mitochondrial respiration in rat L6 cells assessed as fold increase in basal respiration upto 200 uM; assay type: functional
[9] = Induction of mitochondrial uncoupling activity in rat L6 cells assessed as increase in oxygen consumption rate at 0.37 to 200 uM measured after 90 mins by agilent Seahorse XF analyzer relative to BAM15; assay type: functional; conditions: dose 0.37-200 µM, 1.5 h
Mus musculus [10] = experiment: Anti-obesity activity in high-sugar western diet induced obesity C57BL/6j mouse model assessed as reversal of body weight at 130 mg/kg per day, po administered via gavage daily measured after 3 weeks; assay type: functional, organism-based
[11] = Cmax in C57BL/6 mouse at 10 mg/kg, po administered via gavage measured upto 24 hrs by LC/MS-MS analysis; assay type: ADME, organism-based; set-up: dose 10 mg/kg, time < 24 hrs, route po; conditions: in vivo
Mus musculus [12] = experiment: Anti-obesity activity in C57BL/6j mouse assessed as decrease in serum glucose level at 130 mg/kg per day, po administered via gavage daily measured after 3 weeks; assay type: functional, organism-based
[13] = Half life in Swiss albino mouse at 10 mg/kg, po administered via gavage measured upto 24 hrs by LC/MS-MS analysis; assay type: ADME, organism-based; conditions: in vivo

Oc1nc2nonc2cc1Nc1c(F)c(F)c(F)c(F)c1F
Activity (Mus musculus [1]): 84% | Activity (Mus musculus [2]): Active | Activity (Mus musculus [3]): Active | Drug uptake [4]: Active | Activity (Mus musculus [5]): Active | F [6]: 75% | Activity (Mus musculus [7]): Active | fold change (FC) [8]: 2 | Activity [9]: 48% | Activity (Mus musculus [10]): Active | Cmax [11]: 87 µM | Activity (Mus musculus [12]): Active | t1/2 [13]: 4.4 h

Reference: ChEMBL document CHEMBL5247651, “Oxadiazolopyridine Derivatives as Efficacious Mitochondrial Uncouplers in the Prevention of Diet-Induced Obesity” (J Med Chem, 2023)
